Laboratory results taken from patent US20100298377A1, “NOVEL SUBSTITUTED INDAZOLES, THE PREPARATION THEREOF AND USE OF SAME IN THERAPEUTICS” (SANOFI-AVENTIS, priority 2007, published 2010).
Structures can show the parent of a compound that is named as a salt.

System: not given
Assay: not given
Conditions: not given

| Compound | melting point [°C] |
| --- | --- |
| CN1CCCCC1C(NC(=O)Nc1ccc2[nH]nc(NC(=O)c3ccccc3)c2c1)c1ccccc1 (as salt: fumarate) [Ex 28, N-[5-({[(1-Methylpiperid-2-yl)(phenyl)methyl]carbamoyl}amino)-1H-indazol-3-yl]benzamide((S,2S),(R,2R))] | 235 |
| CN1CCCCC1C(c1ccccc1)n1ccn(-c2ccc3[nH]ncc3c2)c1=O (as salt: fumarate) [Ex 30, 1-(1H-Indazol-5-yl)-3-[(1-methylpiperid-2-yl)phenylmethyl]-1,3-dihydroimidazol-2-one((S,2S),(R,2R))] | 231 to 232 |
| S=C(Nc1ccc2[nH]ncc2c1)N[C@@H](c1ccc(Cl)c(Cl)c1)[C@@H]1CCCCN1 (as salt: fumarate) [Ex 31, 1-{(S)-(3,4-Dichlorophenyl)[(2S)-piperid-2-yl]methyl}-3-(1H-indazol-5-yl)thiourea] | 145 |
| CN1CCCCC1C(NC(=O)Nc1ccc2[nH]nc(-c3ccc(S(N)(=O)=O)cc3)c2c1)c1ccccc1 (as salt: fumaric acid salt) [Ex 12, 4-[5-({[(1-Methylpiperid-2-yl)(phenyl)methyl]carbamoyl}amino)-1H-indazol-3-yl]benzenesulfonamide((S,2S),(R,2R))] | 220 |
| CN1CCCCC1C(NC(=O)Nc1ccc2[nH]nc(-c3ccncc3)c2c1)c1ccccc1 (as salt: fumaric acid salt) [Ex 13, 1-[(1-Methylpiperid-2-yl)(phenyl)methyl]-3-(3-pyrid-4-yl-1H-indazol-5-yl)urea((S,2S),(R,2R))] | 205 |
| CN1CCCCC1C(NC(=O)Nc1ccc2[nH]nc(-c3cccnc3)c2c1)c1ccccc1 (as salt: fumaric acid salt) [Ex 14, 1-[(1-Methylpiperid-2-yl)(phenyl)methyl]-3-(3-pyrid-3-yl-1H-indazol-5-yl)urea((S,2S),(R,2R))] | 210 |
| CN1CCCCC1C(NC(=O)Nc1ccc2[nH]nc(-c3ccccn3)c2c1)c1ccccc1 (as salt: fumaric acid salt) [Ex 15, 1-[(1-Methylpiperid-2-yl)(phenyl)methyl]-3-(3-pyrid-2-yl-1H-indazol-5-yl)urea((S,2S),(R,2R))] | > 250 |
| CN1CCCCC1C(NC(=O)Nc1ccc2[nH]nc(-c3nc4ccccc4[nH]3)c2c1)c1ccccc1 (as salt: fumaric acid salt) [Ex 17, 1-[3-(1H-Benzimidazol-2-yl)-1H-indazol-5-yl]-3-[(1-methylpiperid-2-yl)(phenyl)methyl]urea((S,2S),(R,2R))] | 250 |
| Cc1n[nH]c2ccc(NC(=O)NC(c3ccccc3)C3CCCCN3C)cc12 (as salt: fumaric acid salt) [Ex 18, 3-Methyl-5-({[(1-methylpiperid-2-yl)(phenyl)methyl]carbamoyl}amino)-1H-indazole ((S,2S),(R,2R))] | 200 to 201 |
| CN1CCCCC1C(NC(=O)Nc1cc(F)c2[nH]nc(NC(=O)c3ccccc3)c2c1)c1ccccc1 (as salt: fumaric acid salt) [Ex 19, N-[7-Fluoro-5-({[(1-methylpiperid-2-yl)(phenyl)methyl]carbamoyl}amino)-1H-indazol-3-yl]benzamide((S,2S),(R,2R))] | 164 |
| CN1CCCCC1C(NC(=O)Nc1cc(F)c2[nH]nc(N)c2c1)c1ccccc1 (as salt: fumaric acid salt) [Ex 20, 1-(3-Amino-7-fluoro-1H-indazol-5-yl)-3-[(1-methylpiperid-2-yl)(phenyl)methyl]urea((S,2S),(R,2R))] | 221 to 222 |
| CN1CCCCC1C(NC(=O)Nc1cc(F)c2[nH]ncc2c1)c1ccccc1 (as salt: fumaric acid salt) [Ex 21, 1-(7-Fluoro-1H-indazol-5-yl)-3-[(1-methylpiperid-2-yl)(phenyl)methyl]urea((S,2S),(R,2R))] | 224 to 227 |
| CN1CCCCC1C(NC(=O)Nc1ccc2[nH]nc(C#Cc3ccccc3)c2c1)c1ccccc1 (as salt: fumaric acid salt) [Ex 23, 1-[(1-Methylpiperid-2-yl)(phenyl)methyl]-3-[3-(phenylethynyl)-1H-indazol-5-yl]urea((S,2S),(R,2R))] | 227 |
| CN1CCCCC1C(NC(=O)Nc1ccc2[nH]nc(C#Cc3ccc(F)cc3)c2c1)c1ccccc1 (as salt: fumaric acid salt) [Ex 24, 1-{3-[(4-Fluorophenyl)ethynyl]-1H-indazol-5-yl}-3-[(1-methylpiperid-2-yl)(phenyl)methyl]urea((S,2S),(R,2R))] | 244 |
| CN1CCCCC1C(NC(=O)Nc1ccc2[nH]nc(C#Cc3cccnc3)c2c1)c1ccccc1 (as salt: fumaric acid salt) [Ex 25, 1-[(1-Methylpiperid-2-yl)(phenyl)methyl]-3-[3-(pyrid-3-ylethynyl)-1H-indazol-5-yl]urea((S,2S),(R,2R))] | 230 |

Biological target: AKT1 (Homo sapiens, UniProt P31749, S473D)
Sequence (P31749 118-480 S473D limits assumed): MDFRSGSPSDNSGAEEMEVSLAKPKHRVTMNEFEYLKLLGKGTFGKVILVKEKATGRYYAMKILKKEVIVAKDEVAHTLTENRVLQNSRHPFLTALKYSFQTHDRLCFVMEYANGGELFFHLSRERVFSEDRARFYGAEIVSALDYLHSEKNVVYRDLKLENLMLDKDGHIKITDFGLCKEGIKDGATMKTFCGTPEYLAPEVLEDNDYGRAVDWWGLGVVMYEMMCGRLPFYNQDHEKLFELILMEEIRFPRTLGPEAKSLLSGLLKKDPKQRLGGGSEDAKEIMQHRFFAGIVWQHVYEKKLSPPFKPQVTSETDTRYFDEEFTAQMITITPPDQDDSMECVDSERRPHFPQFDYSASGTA
Assay: Determination of the IC50 for AKT1 (HTRF)
Assay type: biochemical
Conditions: AKT1 without PH domain, activated by PDK1
Procedure: Determination of the IC50 for AKT1
The inhibitory potential of the compounds is evaluated by HTRF, a time-resolved fluorescence technique based on non-radiative energy transfer (FRET). […] This phosphorylation allows the kinase activity of AKT1 to be activated.
Starting with a 10 mM solution of inhibitors, 3 μl are taken and placed in a 96-well polypropylene plate containing 27 μl of 100% DMSO. The various test compounds are diluted in cascade by taking 15 μl of compound, to which are added 30 μl of 100% DMSO.
The various reaction components are added in the following manner:
Next, 10 μl of the inhibitor solution are added. Finally, the reaction is initiated by adding 10 μl of a solution containing both 100 μM of ATP and 10 μM of biotinylated peptide. The sequence of this peptide is as follows: biot-[…] (reference Neosystem SP000560). The plate is then covered with a plastic film, agitated and finally incubated at RT for 30 minutes. […] After incubation overnight at 4° C., the plate is read using an Ultra evolution spectrophotometer from Tecan. […] All the tests are performed in duplicate and the mean of the two tests is calculated.
For each point, a delta F is calculated in the following manner:
R(Ratio)=counts665 nm/counts620 nm
ΔF % is calculated by the Tecan Ultra Evolution machine.

| Compound | IC50 [nM] |
| --- | --- |
| CN1CCCCC1C(NC(=O)Nc1ccc2[nH]nc(-c3ccc(S(N)(=O)=O)cc3)c2c1)c1ccccc1 [Ex 12, 4-[5-({[(1-Methylpiperid-2-yl)(phenyl)methyl]carbamoyl}amino)-1H-indazol-3-yl]benzenesulfonamide((S,2S),(R,2R))] | < 100 |
| CN1CCCCC1C(NC(=O)Nc1ccc2[nH]nc(-c3cccnc3)c2c1)c1ccccc1 [Ex 14, 1-[(1-Methylpiperid-2-yl)(phenyl)methyl]-3-(3-pyrid-3-yl-1H-indazol-5-yl)urea((S,2S),(R,2R))] | < 100 |
| CN1CCCCC1C(NC(=O)Nc1cc(F)c2[nH]nc(NC(=O)c3ccccc3)c2c1)c1ccccc1 [Ex 19, N-[7-Fluoro-5-({[(1-methylpiperid-2-yl)(phenyl)methyl]carbamoyl}amino)-1H-indazol-3-yl]benzamide((S,2S),(R,2R))] | 500 to 2000 |
| CN1CCCCC1C(NC(=O)Nc1ccc2[nH]nc(C#Cc3cccc(F)c3)c2c1)c1ccccc1 [Ex 22, 1-{3-[(3-Fluorophenyl)ethynyl]-1H-indazol-5-yl}-3-[(1-methylpiperid-2-yl)(phenyl)methyl]urea((S,2S),(R,2R))] | 100 to 500 |
| O=C(Nc1ccc2[nH]nc(C#Cc3ccccc3)c2c1)N[C@@H](c1ccc(Cl)c(Cl)c1)[C@@H]1CCCCN1 [Ex 26, 1-{(S)-(3,4-Dichlorophenyl)[(2S)-piperid-2-yl]methyl}-3-[3-(phenylethynyl)-1H-indazol-5-yl]urea] | 100 to 500 |
| CN1CCCCC1C(NC(=O)Nc1ccc2[nH]nc(NC(=O)c3ccccc3)c2c1)c1ccccc1 [Ex 28, N-[5-({[(1-Methylpiperid-2-yl)(phenyl)methyl]carbamoyl}amino)-1H-indazol-3-yl]benzamide((S,2S),(R,2R))] | 100 to 500 |
| CN1CCCCC1C(c1ccccc1)n1ccn(-c2ccc3[nH]ncc3c2)c1=O [Ex 30, 1-(1H-Indazol-5-yl)-3-[(1-methylpiperid-2-yl)phenylmethyl]-1,3-dihydroimidazol-2-one((S,2S),(R,2R))] | 100 to 500 |
| CN1CCCCC1C(c1ccccc1)N(C)C(=O)Nc1ccc2[nH]ncc2c1 [Ex 32, 3-(1H-Indazol-5-yl)-1-methyl-1-[(1-methylpiperid-2-yl)phenylmethyl]urea((S,2S),(R,2R))] | 500 to 2000 |
| CN(C(=O)NC(c1ccccc1)C1CCCCN1C)c1ccc2[nH]ncc2c1 [Ex 33, 1-(1H-Indazol-5-yl)-1-methyl-3-[(1-methylpiperid-2-yl)(phenyl)methyl]urea((S,2S),(R,2R))] | 500 to 2000 |
| O=C(Nc1ccc2[nH]ncc2c1)O[C@@H](c1cc(F)cc(Cl)c1)[C@H]1CCCCN1 [Ex 39c, (S)-(3-Chloro-5-fluorophenyl)[(2R)-piperid-2-yl]methyl 1H-indazol-5-ylcarbamate] | 100 to 500 |
| O=C(Nc1ccc2[nH]ncc2c1)O[C@H](c1cc(F)cc(Cl)c1)[C@H]1CCCCN1 [Ex 39d, (R)-(3-Chloro-5-fluorophenyl)[(2R)-piperid-2-yl]methyl 1H-indazol-5-ylcarbamate] | < 100 |
| CCOC(=O)c1cccc(C(OC(=O)Nc2ccc3[nH]ncc3c2)[C@@H]2CCCCN2)c1 (stereo partly drawn) [Ex 41, Ethyl 3-{[(1H-Indazol-5-ylcarbamoyl)oxy][(2S)-piperid-2-yl]methyl}benzoate] | 500 to 2000 |
| CC(C)(C)c1ccc(NC(=O)c2cccc(C(OC(=O)Nc3ccc4[nH]ncc4c3)[C@@H]3CCCCN3)c2)cc1 (stereo partly drawn) [Ex 42, {3-[(4-tert-Butylphenyl)carbamoyl]phenyl}[(2S)-piperid-2-yl]methyl 1H-Indazol-5-yl carbamate] | 500 to 2000 |
| O=C(Nc1ccc2[nH]ncc2c1)OC(c1cccc(C(=O)Nc2ccccc2)c1)[C@@H]1CCCCN1 (stereo partly drawn) [Ex 43, [3-(Anilinocarbonyl)phenyl][(2S)-piperid-2-yl]methyl 1H-Indazol-5-ylcarbamate] | 100 to 500 |
| O=C(Nc1ccc2[nH]ncc2c1)O[C@@H](c1cccc(C(F)(F)F)c1)[C@@H]1CCCCN1 [Ex 44, (S)-(3-Trifluoromethylphenyl)[(2S)-piperid-2-yl]methyl 1H-indazol-5-ylcarbamate] | < 100 |
| O=C(Nc1ccc2[nH]ncc2c1)O[C@@H](c1cccc(I)c1)[C@@H]1CCCCN1 [Ex 45, (S)-(3-Iodophenyl)[(2S)-piperid-2-yl]methyl 1H-indazol-5-ylcarbamate] | < 100 |
| (7-Fluoro-1H-indazol-5-yl)-(S)-(3-chloro-5-fluorophenyl)-(S)-piperid-2-ylmethyl carbamate [Ex 49] | < 100 |
